Target: T1, rat mGluR5 (Rattus norvegicus, UniProt P31424)
T1 construct: expressed in transfected cells
Assay: mGluR5 calcium flux assay in HEK 293A cells, negative allosteric modulation of glutamate EC80 response
Assay type: cell-based
Conditions: for IC50: HEK cells transfected with rat mGluR5, glutamate EC80, ± is standard error of at least three experiments; for % Glu Max at single concentration: average Glu Max at 30 μM, CRC does not hit a plateau
Protocol: HEK 293A cells stably expressing either rat or human mGluR5 were plated in black-walled, clear-bottomed, poly-D-lysine coated 384-well plates in 20 μL of assay medium (DMEM containing 10% dialyzed FBS, 20 mM HEPES, 100 units/mL penicillin/streptomycin plus 250 ng/mL Fungizone, and 1 mM sodium pyruvate) at a density of 20K cells/well. The cells were grown overnight at 37° C. in the presence of 5% CO2. The next day, medium was removed and the cells incubated with 20 μL of 2.3 µM Fluo-4, AM prepared as a 2.3 mM stock in DMSO and mixed in a 1:1 ratio with 10% (w/v) pluronic acid F-127 and diluted in assay buffer (Hank's balanced salt solution, 20 mM HEPES, and 2.5 mM probenecid) for 45 minutes at 37° C. Dye was removed, 20 μL of assay buffer was added, and the plate was incubated for 5 minutes at room temperature.
Ca^2+ flux was measured using the Functional Drug Screening System (FDSS7000, Hamamatsu, Japan). After establishment of a fluorescence baseline for about 3 seconds, the compounds of the present invention were added to the cells, and the response in cells was measured. 2.3 minutes later an EC20 concentration of the mGluR5 receptor agonist glutamate was added to the cells, and the response of the cells was measured for 1.9 minutes; an EC80 concentration of agonist was added and readings taken for an additional 1.7 minutes. All test compounds were dissolved and diluted to a concentration of 10 mM in 100% DMSO. Compounds were then serially diluted 1:3 in DMSO into 10 point concentration response curves, transferred to daughter plates, and further diluted into assay buffer to a 2× stock. Calcium fluorescence measures were recorded as fold over basal fluorescence; raw data was then normalized to the maximal response to glutamate. Antagonism of the agonist response of the mGluR5 receptor in the present invention was observed as a decrease in response to nearly maximal concentrations of glutamate in the presence of compound compared to the response to glutamate in the absence of compound.
The raw data file containing all time points was used as the data source in the analysis template. This was saved by the FDSS as a tab-delimited text file. Data were normalized using a static ratio function (F/F0) for each measurement of the total 360 values per well divided by each well's initial value. Data were then reduced to peak amplitudes (Max−Initial Min) using a time range that starts approximately 3 seconds prior to the glutamate EC20/EC80 addition and continues for approximately 90-120 seconds. This is sufficient time to capture the peak amplitude of the cellular calcium response. Individual amplitudes were expressed as % EMax by multiplying each amplitude by 100 and then dividing the product by the mean of the amplitudes derived from the glutamate ECMax-treated wells. IC50 values for test compounds were generated by fitting the normalized values versus the log of the test compound concentration (in mol/L) using a 4 parameter logistic equation where none of the parameters were fixed. Each of the three values collected at each concentration of test compound were weighted evenly.
For NAMs with a CRC that plateaus above 10% Glu Max, the IC50 values are reported, the compound is designated a “partial NAM” and the % Glu Max is reported. […] Compounds without measurable activity are designated as “>30,000 nM” since the top concentration of compound tested in the assay is 30 µM. Exemplary data are provided in Tables 1 and 2 below.
Table 1 below lists specific compounds, experimentally determined molecular mass, and mGluR5 activity determined in a cell-based assay. The mGluR5 activity was determined using the metabotropic glutamate receptor activity assays in human embryonic kidney cells as described herein, wherein the human embryonic kidney cells were transfected with rat mGluR5. The mGluR5 activity data for some compounds are shown as the average of at least three experiments with the standard error in these cases. […]

T1 sequence (P31424 21-1203): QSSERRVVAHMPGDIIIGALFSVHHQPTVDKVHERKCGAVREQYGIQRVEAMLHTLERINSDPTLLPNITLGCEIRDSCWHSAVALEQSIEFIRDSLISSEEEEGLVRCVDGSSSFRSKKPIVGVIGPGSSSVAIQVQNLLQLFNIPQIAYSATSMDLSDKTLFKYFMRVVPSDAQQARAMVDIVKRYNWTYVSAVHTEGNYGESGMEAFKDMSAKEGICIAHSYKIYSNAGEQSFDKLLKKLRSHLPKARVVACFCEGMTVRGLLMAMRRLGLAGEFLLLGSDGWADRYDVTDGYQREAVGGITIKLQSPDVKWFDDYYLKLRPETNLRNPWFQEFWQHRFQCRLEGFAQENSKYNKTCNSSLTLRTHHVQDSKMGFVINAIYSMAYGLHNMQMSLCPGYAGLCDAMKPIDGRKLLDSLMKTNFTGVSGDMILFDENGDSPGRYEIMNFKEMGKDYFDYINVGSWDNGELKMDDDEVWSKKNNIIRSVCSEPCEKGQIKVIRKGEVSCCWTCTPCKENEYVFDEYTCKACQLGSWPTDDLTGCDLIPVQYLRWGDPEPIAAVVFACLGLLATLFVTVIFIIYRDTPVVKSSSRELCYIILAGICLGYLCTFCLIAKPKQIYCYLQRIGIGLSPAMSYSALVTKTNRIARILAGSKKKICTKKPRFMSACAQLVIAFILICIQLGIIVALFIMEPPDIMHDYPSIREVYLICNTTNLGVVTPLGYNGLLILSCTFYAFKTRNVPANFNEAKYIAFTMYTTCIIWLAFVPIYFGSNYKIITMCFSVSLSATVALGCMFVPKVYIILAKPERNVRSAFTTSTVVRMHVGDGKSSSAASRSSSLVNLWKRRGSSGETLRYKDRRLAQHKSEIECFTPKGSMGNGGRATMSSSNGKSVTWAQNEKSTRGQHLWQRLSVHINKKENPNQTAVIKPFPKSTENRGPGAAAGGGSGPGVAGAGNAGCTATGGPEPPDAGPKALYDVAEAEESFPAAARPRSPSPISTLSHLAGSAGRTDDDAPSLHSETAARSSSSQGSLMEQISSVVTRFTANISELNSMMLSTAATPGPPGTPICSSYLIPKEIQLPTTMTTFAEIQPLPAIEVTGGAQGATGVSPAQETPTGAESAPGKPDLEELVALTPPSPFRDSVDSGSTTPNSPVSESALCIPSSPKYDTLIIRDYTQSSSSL

SMILES | IC50 [nM] | further results
CCOCCOc1cc(C)nc(C(=O)Nc2ccc(F)cn2)c1 | 2100 | 
Cc1cc(O[C@H]2CCOC2)cc(C(=O)Nc2ccc(F)cn2)n1 | 685 ± 51 | 
Cc1cc(OC2CCCC2)cc(C(=O)Nc2ccc(F)cn2)n1 | 3660 | 
Cc1cc(OC2CN(C(=O)CC(C)C)C2)cc(C(=O)Nc2ccc(F)cn2)n1 | 4330 | 
COCCCOc1cc(C)nc(C(=O)Nc2ccccn2)c1 | 844 | 
Cc1cc(OCC2CCCO2)cc(C(=O)Nc2ccc(F)cn2)n1 (stereo not drawn) | 2330 | 
CCCS(=O)(=O)N1CC(Oc2cc(C)nc(C(=O)Nc3ccc(F)cn3)c2)C1 | > 10000 | % Glu Max at single concentration (rat mGluR5): 53%
Cc1cc(OC2CN(C(=O)OCC(C)C)C2)cc(C(=O)Nc2ccc(F)cn2)n1 | > 30000 | 
COCCOCCOc1cc(C)nc(C(=O)Nc2ccccn2)c1 | 2540 | 
COC(=O)N1CC(Oc2cc(C)nc(C(=O)Nc3nc(C)cs3)c2)C1 | 686 | 
COC[C@@H](C)Oc1cc(C)nc(C(=O)Nc2ccc(F)cn2)c1 | 9100 | 
Cc1cc(OC2CN(S(=O)(=O)C(C)C)C2)cc(C(=O)Nc2ccc(F)cn2)n1 | 3980 | NAM designation (rat mGluR5, CRC plateaus above 10% Glu Max): Partial NAM; % Glu Max (partial NAM, plateau of CRC) (rat mGluR5, response in presence of compound as percentage of maximal glutamate response, CRC plateaus above 10%): 58%
Cc1cc(O[C@H]2CO[C@H](C)C2)cc(C(=O)Nc2nc(C(F)F)cs2)n1 | 902 | 
CCOC(=O)N1CC(Oc2cc(C)nc(C(=O)Nc3ccc(F)cn3)c2)C1 | 3340 | 
CC(=O)N1CC(Oc2cc(C)nc(C(=O)Nc3ccc(F)cn3)c2)C1 | 756 ± 130 | 
COCCOCCOc1cc(C)nc(C(=O)Nc2ccc(F)cn2)c1 | 6930 | 
Cc1cc(OC2CN(S(C)(=O)=O)C2)cc(C(=O)Nc2ccc(F)cn2)n1 | 1310 | 
Cc1cc(OC2CCCCC2)cc(C(=O)Nc2nc(C)cs2)n1 | 2100 | 
Cc1cc(OC[C@H]2CCOC2)cc(C(=O)Nc2ccccn2)n1 | 972 | 
Cc1cc(OCC2CCOC2)cc(C(=O)Nc2ccc(F)cn2)n1 (stereo not drawn) | 701 | 
CO[C@H](C)COc1cc(C)nc(C(=O)Nc2ccc(F)cn2)c1 | 718 | 
CCC(=O)N1CC(Oc2cc(C)nc(C(=O)Nc3ccc(F)cn3)c2)C1 | 3400 | 

SMILES | IC50 [nM] | further results
CCOC(=O)N1CC(Oc2cc(C)nc(C(=O)Nc3nc(C)cs3)c2)C1 | 862 | 
Cc1ccc(NC(=O)c2cc(OC3COC3)cc(C)n2)nc1 | 1480 | 
CCS(=O)(=O)N1CC(Oc2cc(C)nc(C(=O)Nc3nc(C)cs3)c2)C1 | 1270 | 
COC[C@@H](C)Oc1cc(C)nc(C(=O)Nc2nc(C)cs2)c1 | 1030 | 
CCS(=O)(=O)N1CC(Oc2cc(C)nc(C(=O)Nc3ccc(F)cn3)c2)C1 | > 10000 | % Glu Max at single concentration (rat mGluR5): 62%
Cc1cc(OC2CC3(COC3)C2)cc(C(=O)Nc2ccc(F)cn2)n1 | 3710 | 
Cc1cc(OC2CN(S(=O)(=O)CC(C)C)C2)cc(C(=O)Nc2nc(C)cs2)n1 | > 10000 | % Glu Max at single concentration (rat mGluR5): 59%
Cc1cc(OCC2COCCO2)cc(C(=O)Nc2ccccn2)n1 (stereo not drawn) | 1780 | 
CCCCOC(=O)N1CC(Oc2cc(C)nc(C(=O)Nc3ccc(F)cn3)c2)C1 | 11200 | 
COCCCOc1cc(C)nc(C(=O)Nc2ccc(F)cn2)c1 | 2630 | 
COC(=O)N1CC(Oc2cc(C)nc(C(=O)Nc3ccc(F)cn3)c2)C1 | 1570 | 
Cc1cc(OCC2CCO2)cc(C(=O)Nc2ccc(F)cn2)n1 (stereo not drawn) | 2480 | 
Cc1cc(O[C@@H]2CCOC2)cc(C(=O)Nc2nc(C(F)(F)F)cs2)n1 | 2040 | 
Cc1cc(OC2CN(C(=O)OC(C)C)C2)cc(C(=O)Nc2nc(C)cs2)n1 | 2510 | 
Cc1cc(O[C@H]2CO[C@@H](C)C2)cc(C(=O)Nc2ccc(F)cn2)n1 | 4470 ± 260 | 
Cc1cc(O[C@H]2CO[C@H](C)C2)cc(C(=O)Nc2nc(C)c(F)s2)n1 | 1290 | 
CO[C@@H](C)COc1cc(C)nc(C(=O)Nc2ccccn2)c1 | 2210 | 
COc1ccc(NC(=O)c2cc(OC3COC3)cc(C)n2)nc1 | 1390 | 
Cc1cc(OC2CN(C(=O)N(C)C)C2)cc(C(=O)Nc2ccc(F)cn2)n1 | > 10000 | % Glu Max at single concentration (rat mGluR5): 69%
Cc1cc(OCC2CCCCO2)cc(C(=O)Nc2nc(C)cs2)n1 (stereo not drawn) | 1920 | 
CO[C@@H](C)COc1cc(C)nc(C(=O)Nc2nc(C)cs2)c1 | 1050 | 
COC[C@H](C)Oc1cc(C)nc(C(=O)Nc2ccc(F)cn2)c1 | 7610 | 

These reach a lower IC50. Values come first.

IC50 [nM] | SMILES | further results
527 | COCCOc1cc(C)nc(C(=O)Nc2ccc(F)cn2)c1 | 
392 | Cc1cc(OC2CS(=O)(=O)C2)cc(C(=O)Nc2nc(C)cs2)n1 | 
469 | Cc1cc(OC[C@@H]2CCOC2)cc(C(=O)Nc2ccc(F)cn2)n1 | 
504 | Cc1cc(OC2CN(S(C)(=O)=O)C2)cc(C(=O)Nc2nc(C)cs2)n1 | 
264 ± 47 | Cc1cc(O[C@H]2CCCOC2)cc(C(=O)Nc2ccc(F)cn2)n1 | 
392 | Cc1cc(OCC2COC2)cc(C(=O)Nc2ccccn2)n1 | 
75 | Cc1cc(O[C@H]2CCCOC2)cc(C(=O)Nc2ccccn2)n1 | 
182 | Cc1cc(OC2CCC2)cc(C(=O)Nc2ccc(F)cn2)n1 | 
364 | CCOCCOc1cc(C)nc(C(=O)Nc2nc(C)cs2)c1 | 
610 | Cc1cc(OCC2CCOCC2)cc(C(=O)Nc2nc(C)cs2)n1 | 
194 | CO[C@H](C)COc1cc(C)nc(C(=O)Nc2ccccn2)c1 | 
145 | CO[C@H](C)COc1cc(C)nc(C(=O)Nc2nc(C)cs2)c1 | 
497 | Cc1cc(OC2CCCOC2)cc(C(=O)Nc2ccc(F)cn2)n1 (stereo not drawn) | 
162 | Cc1cc(OC2COC2)cc(C(=O)Nc2cccc(Cl)n2)n1 | 
212 ± 8 | Cc1cc(OC2COC2)cc(C(=O)Nc2ccc(F)cn2)n1 | 
364 | Cc1cc(OC[C@H]2CCOC2)cc(C(=O)Nc2nc(C)cs2)n1 | 
210 | Cc1cc(OCC2CCOC2)cc(C(=O)Nc2ccccn2)n1 (stereo not drawn) | 
433 | Cc1cc(OC2CC3(COC3)C2)cc(C(=O)Nc2nc(C)cs2)n1 | 
59 | Cc1cccc(NC(=O)c2cc(OC3COC3)cc(C)n2)n1 | 

IC50 [nM] | SMILES | further results
182 | Cc1cc(OC2CCCC2)cc(C(=O)Nc2ccccn2)n1 | 
143 ± 32 | Cc1cc(OCC2COC2)cc(C(=O)Nc2nc(C)cs2)n1 | 
180 | Cc1cc(OC2C[S+]([O-])C2)cc(C(=O)Nc2nc(C)cs2)n1 (stereo not drawn) | 
273 | Cc1cc(OCC2CCCO2)cc(C(=O)Nc2nc(C)cs2)n1 (stereo not drawn) | 
91 ± 3 | Cc1cc(O[C@H]2CCCOC2)cc(C(=O)Nc2nc(C)cs2)n1 | 
41 ± 3 | Cc1cc(O[C@@H]2CCOC2)cc(C(=O)Nc2ccc(F)cn2)n1 | 
120 | COCCOc1cc(C)nc(C(=O)Nc2ccccn2)c1 | 
23 | Cc1cc(O[C@@H]2CCOC2)cc(C(=O)Nc2ccccn2)n1 | 
634 | Cc1cc(OC2CCS(=O)(=O)C2)cc(C(=O)Nc2ccc(F)cn2)n1 (stereo not drawn) | 
39 | Cc1cc(OC2CCSC2)cc(C(=O)Nc2ccccn2)n1 (stereo not drawn) | 
153 | Cc1cc(O[C@@H]2CCOC2)cc(C(=O)Nc2nc(C3CC3)cs2)n1 | 
81 ± 13 | Cc1cc(O[C@H]2CO[C@H](C)C2)cc(C(=O)Nc2nc(C)cs2)n1 | 
70 ± 10 | Cc1cc(OC2COC2)cc(C(=O)Nc2nc(C)cs2)n1 | 
224 | Cc1cc(OC2CCCOC2)cc(C(=O)Nc2ccccn2)n1 (stereo not drawn) | 
42 ± 9 | Cc1cc(O[C@@H]2CCOC2)cc(C(=O)Nc2nc(C)cs2)n1 | 
194 | Cc1cc(O[C@H]2CCOC2)cc(C(=O)Nc2ccccn2)n1 | 
101 | Cc1cc(O[C@@H]2CCCOC2)cc(C(=O)Nc2ccccn2)n1 | 
399 | Cc1cc(OCC2CCO2)cc(C(=O)Nc2nc(C)cs2)n1 (stereo not drawn) | 

Reference: patent US20170247366A1, “SUBSTITUTED 4-ALKOXYPICOLINAMIDE ANALOGS AS MGLUR5 NEGATIVE ALLOSTERIC MODULATORS AND METHODS OF MAKING AND USING THE SAME” (VANDERBILT UNIVERSITY, priority 2014, published 2017)
